Experiments:
[1] = Worst-case calculation, Application 2 cheese packaging wrap exposure scenario; details: 100% migration, 2.0 g/m^2 dry film
[2] = Worst-case calculation (100% migration), standard EU Cube exposure model; details: for Worst-case calculation as a percentage of SML (or restriction), EU Cube / Worst Case Calculation of migration in EU Cube model (as a percentage of SML): 100% migration; for Worst-case calculation as a percentage of SML (or restriction), EU Cube: 2.0 g/m^2 dry film; for Worst Case Calculation of migration in EU Cube model (as a percentage of SML): dry coat weight 2.0 g/m^2
[3] = Worst-case calculation, Application 1 yoghurt pot lid exposure scenario; details: 100% migration, 2.0 g/m^2 dry film
[4] = Specific migration limit (SML) from regulation or hazard assessment (TTC, VEGA QSAR, Cramer Class); details: for SML or Restriction (mg substance/kg food): source HA (internal hazard assessment), self-derived SML, EU Cube model; for SML (or restriction): Source of SML or restriction: HA (internal hazard assessment)
[5] = substance in ink SBDEV980 (Ex. 4B Red)
[6] = substance in ink SBDEV977 (Ex. 4A Yellow)

## c1ccc(-c2ccc(-c3nc(-c4ccc(-c5ccccc5)cc4)nc(-c4ccc(-c5ccccc5)cc4)n3)cc2)cc1 [0031274-51-8, 1,3,5-Triazine, 2,4,6-Tris([1,1′-Biphenyl]-4-Yl)-]
[1]; product SBDEV980
  Worst-case calculation as a percentage of SML (or restriction), Application 2: 0.4 percentage of SML (or restriction)
[1]; product SBDEV1285
  Worst-case calculation as a percentage of SML (or restriction), Application 2: 0.4 percentage of SML (or restriction)
[2]; product SBDEV980
  Worst-case calculation as a percentage of SML (or restriction), EU Cube: 0.3 percentage of SML (or restriction)
[2]; product SBDEV1285
  Worst-case calculation as a percentage of SML (or restriction), EU Cube: 0.3 percentage of SML (or restriction)
[2]; [5]
  Worst Case Calculation of migration in EU Cube model (as a percentage of SML): 0.3 percentage of SML
[3]; product SBDEV980
  Worst-case calculation as a percentage of SML (or restriction), Application 1: 0.1 percentage of SML (or restriction)
[3]; product SBDEV1285
  Worst-case calculation as a percentage of SML (or restriction), Application 1: 0.1 percentage of SML (or restriction)
[4]
  SML or Restriction (mg substance/kg food): 5 mg substance/kg food

## O=C1NC(=O)C(=C2NC(=O)c3ccccc32)C(=O)N1 [0013481-50-0, 2,4,6(1H,3H,5H)-Pyrimidinetrione, 5-(2,3-Dihydro-3-Oxo-1H-Isoindol-1-Ylidene)-]
[4]
  SML or Restriction (mg substance/kg food): 0.09 mg substance/kg food

## OCCNCCO [0000111-42-2, Diethanolamine]
[2]; substance in ink SBDEV977 (Ex. 4A Yellow), volatile substance
  Worst Case Calculation of migration in EU Cube model: Basis for Safety outcome: Converter

## O=Cc1ccc(Cl)cc1 [4-Chlorobenzaldehyde]
[4]
  SML (or restriction): 0.09 mg substance/kg food

## CCCOC(CC)OCCC [0004744-11-0, Propane, 1,1-dipropoxy-]
[4]
  SML or Restriction (mg substance/kg food): 0.09 mg substance/kg food

## CCCCCCCC/C=C\CCCCCCCC(=O)N(CCO)CCO [0000093-83-4, N,N-Bis(2-hydroxyethyl) oleamide]
[1]; product SBDEV977
  Worst-case calculation as a percentage of SML (or restriction), Application 2: 99.4 percentage of SML (or restriction)
[1]; product SBDEV1287
  Worst-case calculation as a percentage of SML (or restriction), Application 2: 97.9 percentage of SML (or restriction)
[2]; product SBDEV977
  Worst-case calculation as a percentage of SML (or restriction), EU Cube: 69 percentage of SML (or restriction)
[2]; product SBDEV1287
  Worst-case calculation as a percentage of SML (or restriction), EU Cube: 68 percentage of SML (or restriction)
[2]; [6]
  Worst Case Calculation of migration in EU Cube model (as a percentage of SML): 69 percentage of SML
[3]; product SBDEV977
  Worst-case calculation as a percentage of SML (or restriction), Application 1: 27.1 percentage of SML (or restriction)
[3]; product SBDEV1287
  Worst-case calculation as a percentage of SML (or restriction), Application 1: 26.7 percentage of SML (or restriction)
[4]
  SML or Restriction (mg substance/kg food): 0.09 mg substance/kg food

## O=C1NC(=O)c2ccccc21 [0000085-41-6, Phthalimide]
[1]; product SBDEV977
  Worst-case calculation as a percentage of SML (or restriction), Application 2: 1382.4 percentage of SML (or restriction)
[1]; product SBDEV1287
  Worst-case calculation as a percentage of SML (or restriction), Application 2: 1368.0 percentage of SML (or restriction)
[2]; product SBDEV977
  Worst-case calculation as a percentage of SML (or restriction), EU Cube: 960 percentage of SML (or restriction)
[2]; product SBDEV1287
  Worst-case calculation as a percentage of SML (or restriction), EU Cube: 950 percentage of SML (or restriction)
[2]; [6]
  Worst Case Calculation of migration in EU Cube model (as a percentage of SML): 960 percentage of SML
[3]; product SBDEV977
  Worst-case calculation as a percentage of SML (or restriction), Application 1: 377.6 percentage of SML (or restriction)
[3]; product SBDEV1287
  Worst-case calculation as a percentage of SML (or restriction), Application 1: 373.7 percentage of SML (or restriction)
[4]
  SML or Restriction (mg substance/kg food): 0.09 mg substance/kg food

## O=Cc1ccc(Cl)cc1 [0000104-88-1, 4-Chlorobenzaldehyde]
[1]; product SBDEV980
  Worst-case calculation as a percentage of SML (or restriction), Application 2: 20.2 percentage of SML (or restriction)
[1]; product SBDEV1285
  Worst-case calculation as a percentage of SML (or restriction), Application 2: 20.2 percentage of SML (or restriction)
[2]; product SBDEV980
  Worst-case calculation as a percentage of SML (or restriction), EU Cube: 14 percentage of SML (or restriction)
[2]; product SBDEV1285
  Worst-case calculation as a percentage of SML (or restriction), EU Cube: 14 percentage of SML (or restriction)
[2]; [5]
  Worst Case Calculation of migration in EU Cube model (as a percentage of SML): 14 percentage of SML
[3]; product SBDEV980
  Worst-case calculation as a percentage of SML (or restriction), Application 1: 5.5 percentage of SML (or restriction)
[3]; product SBDEV1285
  Worst-case calculation as a percentage of SML (or restriction), Application 1: 5.5 percentage of SML (or restriction)
[4]
  SML or Restriction (mg substance/kg food): 0.09 mg substance/kg food

## NC(=O)c1ccc(-c2ccccc2)cc1 [0003815-20-1, 4-Phenylbenzamide]
[1]; product SBDEV980
  Worst-case calculation as a percentage of SML (or restriction), Application 2: 331.2 percentage of SML (or restriction)
[1]; product SBDEV1285
  Worst-case calculation as a percentage of SML (or restriction), Application 2: 331.2 percentage of SML (or restriction)
[2]; product SBDEV980
  Worst-case calculation as a percentage of SML (or restriction), EU Cube: 230 percentage of SML (or restriction)
[2]; product SBDEV1285
  Worst-case calculation as a percentage of SML (or restriction), EU Cube: 230 percentage of SML (or restriction)
[2]; [5]
  Worst Case Calculation of migration in EU Cube model (as a percentage of SML): 230 percentage of SML
[3]; product SBDEV980
  Worst-case calculation as a percentage of SML (or restriction), Application 1: 90.5 percentage of SML (or restriction)
[3]; product SBDEV1285
  Worst-case calculation as a percentage of SML (or restriction), Application 1: 90.5 percentage of SML (or restriction)
[4]
  SML or Restriction (mg substance/kg food): 0.09 mg substance/kg food

## c1ccc(-c2ccc(-c3nc(-c4ccc(-c5ccccc5)cc4)nc(-c4ccc(-c5ccccc5)cc4)n3)cc2)cc1 [1,3,5-Triazine, 2,4,6-Tris([1,1′-Biphenyl]-4-Yl)-]
[4]
  SML (or restriction): 5 mg substance/kg food
